In publication PMC2866756 (Antiviral research, 2010):
Like-named read-outs stand apart in the source and are kept apart here. Marks after values point to notes of the source that are not given here.

How the values were obtained:
VZV [1] = conditions: ref Taylor et al., 2004; cited from earlier work
VZV [2] = experiment: Attempt to isolate roscovitine-resistant VZV by continuous culture; type: cell-based, Varicella-zoster virus; conditions: 10 weeks of continuous culture at doses below the EC50, authors' observations
VZV-BAC-Luc [3] = experiment: Skin organ culture; type: cell-based, Varicella-zoster virus; conditions: for antiviral effects in SOC compared with cultured HFFs: 2 dpi, same concentrations as in HFFs (EC99 doses); for effect on total flux in skin explants: SOC, EC99 doses: 400 μM acyclovir, 1 mM PAA, 1 mM L-mimosine, 50 μM DRB, 20 μM aphidicolin, 20 μM aloisine A, 20 μM purvalanol A, 25 μM roscovitine
skin tissue = conditions: skin organ culture; ref Taylor and Moffat, 2005; cited from earlier work
VZV [4] = experiment: Antiviral assay, VZV yield by infectious focus; type: cell-based, Varicella-zoster virus; conditions: for Selective Index: cytotoxic dose divided by the EC50 (plaque assay)
[5] = Tolerability in SCID-Hu mice
VZV-BAC-Luc [6] = type: in vivo, Varicella-zoster virus; conditions: for effect on VZV growth rate in vivo: SCID-Hu mice, dose groups combined, 3 experiments
VZV [7] = experiment: Antiviral assay, VZV genome copy number by quantitative PCR; type: cell-based, Varicella-zoster virus; conditions: read-out: VZV EC50 (qPCR)
HFFs = conditions: for Cell Growth Arrest Dose: lowest dose for which absorbance at 48 h was the same as at 0 h
[8] = Human alphaherpesvirus 3, MeWo, 48 h, read-out: VZV EC50 (titer)
[9] = 0.7 mg/kg/day, s.c. osmotic pump, 7 days
[10] = 1.5 mg/kg/day, s.c. osmotic pump, 7 days
[11] = 2.8 mg/kg/day, s.c. osmotic pump, 7 days
[12] = 4.3 mg/kg/day, s.c. osmotic pump, 7 days
[13] = read-out: VZV EC50 (titer), HFFs, 48 h, titered on MeWo cells
[14] = subconfluent HFFs, 48 h, fold change less than 1, * = solubility limit
[15] = HFFs, 48 h, ORF38 copies normalized to β-globin

Compound: CC[C@H](CO)Nc1nc(NCc2ccccc2)c2ncn(C(C)C)c2n1 (racemic) [Roscovitine (racemic), Roscovitine]
- reversibility of antiviral effect (VZV [1]): reversible
- isolation of a resistant strain of VZV (VZV [2]): failed
- antiviral effects in SOC compared with cultured HFFs (VZV-BAC-Luc [3]): similar
- effect on total flux in skin explants (VZV-BAC-Luc [3]): reduced the total flux
- cytotoxicity by histopathological analysis of skin tissue (skin tissue): neither DMSO nor roscovitine was cytotoxic
- EC50 (VZV [4]; [8]): 4 µM
- Mortality [5, 9]: 0/5
- ABWD [5, 10]: −0.10 grams
- Mortality [5, 10]: 0/4
- ABWD [5, 11]: −1.60 grams
- Mortality [5, 11]: 0/7
- ABWD [5, 12]: 0.36 grams
- Mortality [5, 12]: 0/5
- Avg. VZV Growth Rate (VZV-BAC-Luc [6]; [9]): 0.13 Log10 photons/sec/day
- Avg. VZV Growth Rate (VZV-BAC-Luc [6]; [10]): 0.12 Log10 photons/sec/day
- Avg. VZV Growth Rate (VZV-BAC-Luc [6]; [11]): 0.24 Log10 photons/sec/day
- Avg. VZV Growth Rate (VZV-BAC-Luc [6]; [12]): 0.26 Log10 photons/sec/day
- effect on VZV growth rate in vivo (VZV-BAC-Luc [6]): significantly reduced VZV growth rates

Compound: Nc1nc2c(ncn2COCCO)c(=O)[nH]1 [Acyclovir]
- EC50 (VZV [4]; [8]): 4 µM
- EC50 (VZV [7]; Human alphaherpesvirus 3, 48 h): 5 µM
- tolerance in Neutral Red assay (HFFs): tolerated up through the limit of their solubility
- Cytotoxic Dose (HFFs; human, 48 h): 1.0 × 10^3* μM

Compound: CCCCc1c(-c2ccc(O)cc2)[nH]c2nccnc12 [Aloisine A]
- antiviral effects in SOC compared with cultured HFFs (VZV-BAC-Luc [3]): much lower
- effect on total flux in skin explants (VZV-BAC-Luc [3]): increased
- EC50 (VZV [4]; [8]): 2.5 µM
- EC50 (VZV [4]; Human alphaherpesvirus 3, read-out: EC50 values): 2 to 4 µM
- EC50 (VZV [7]; Human alphaherpesvirus 3, 48 h): 2 µM
- tolerance in Neutral Red assay (HFFs; HFFs, culture medium at 37°C): tolerated up through the limit of their solubility
- Cell Growth Arrest Dose (HFFs; HFFs): 20 µM

Compound: C[C@@]1(CO)[C@H](O)CC[C@@]2(C)[C@H]1CC[C@H]1C[C@@H]3C[C@@]12CC[C@]3(O)CO [Aphidicolin]
- antiviral effects in SOC compared with cultured HFFs (VZV-BAC-Luc [3]): similar
- effect on total flux in skin explants (VZV-BAC-Luc [3]): reduced the total flux
- Selective Index (VZV [4]): 833
- tolerance in Neutral Red assay (HFFs; HFFs, culture medium at 37°C): tolerated up through the limit of their solubility

Compound: C[S+](C)[O-] [DMSO, Dimethylsulfoxide]
- EC50 (VZV [4]; [13]): 75000 µM
- effect on cell growth (HFFs; HFFs, 400 mM): inhibited cell growth slightly
- concentration with no effect in Neutral Red assay (HFFs; HFFs, 48 h): up to 150 mM
- Cytotoxic Dose (HFFs; [14]): >400000 µM

Compound: OC[C@H]1O[C@@H](n2cnc3cc(Cl)c(Cl)cc32)[C@H](O)[C@@H]1O [DRB, Dichloro-β-D-ribofurano-sylbenzimidazole]
- antiviral effects in SOC compared with cultured HFFs (VZV-BAC-Luc [3]): similar
- effect on total flux in skin explants (VZV-BAC-Luc [3]): reduced the total flux
- EC50 (VZV [4]; [13]): 5 µM
- EC50 (VZV [7]; [15]): 2 µM
- Cell Growth Arrest Dose (HFFs; HFFs): 50 µM

Compound: N[C@@H](Cn1ccc(=O)c(O)c1)C(=O)O [L-mimosine]
- antiviral effects in SOC compared with cultured HFFs (VZV-BAC-Luc [3]): similar
- effect on total flux in skin explants (VZV-BAC-Luc [3]): reduced the total flux
- EC50 (VZV [4]; [8]): 70 µM
- Selective Index (VZV [4]): 43
- EC50 (VZV [7]; Human alphaherpesvirus 3, 48 h): 50 µM
- Cell Growth Arrest Dose (HFFs; HFFs): 300 µM
- Cytotoxic Dose (HFFs; human, 48 h): 3000 µM

Compound: O=C(O)CP(=O)(O)O [Phosphonoacetic acid (PAA), Phosphonoacetic acid]
- EC50 (VZV [4]; [8]): 300 µM
- EC50 (VZV [7]; Human alphaherpesvirus 3, 48 h): 500 µM
- Cytotoxic Dose (HFFs; human, 48 h): 15000 µM

Compound: CC(C)[C@H](CO)Nc1nc(Nc2cccc(Cl)c2)c2ncn(C(C)C)c2n1 [Purvalanol A]
- antiviral effects in SOC compared with cultured HFFs (VZV-BAC-Luc [3]): much lower
- effect on total flux in skin explants (VZV-BAC-Luc [3]): increased
- Selective Index (VZV [4]): 570
- ABWD ([5]; 20 mg/kg/day, daily i.p. injection): −2.96 grams
- tolerability in mice ([5]; i.p. injection, 20 or 10 mg/kg/day): not as well tolerated as roscovitine
- Avg. VZV Growth Rate (VZV-BAC-Luc [6]; 10 mg/kg/day, daily i.p. injection): 0.37 Log10 photons/sec/day
- effect on VZV growth rate in vivo (VZV-BAC-Luc [6]): not effective at reducing the rate of VZV growth
- effect on VZV growth rate in vivo (VZV-BAC-Luc [6]; listed as purvalanol A): No difference
- Cell Growth Arrest Dose (HFFs; HFFs): 10 µM
- Cytotoxic Dose (HFFs; [14]): 20 µM

Compound: CC[C@H](CO)Nc1nc(NCc2ccccc2)c2ncn(C(C)C)c2n1 [R-Roscovitine]
- EC50 (VZV [4]; [8]): 3.5 µM
- EC50 (VZV [7]; Human alphaherpesvirus 3, 48 h): 3 µM

Compound: CC[C@@H](CO)Nc1nc(NCc2ccccc2)c2ncn(C(C)C)c2n1 [S-Roscovitine]
- EC50 (VZV [4]; [13]): 2.5 µM
- EC50 (VZV [7]; [15]): 1 µM

Compound: CN[C@@H]1C[C@H]2O[C@@](C)([C@@H]1OC)n1c3ccccc3c3c4c(c5c6ccccc6n2c5c31)C(=O)NC4 [staurosporine]
- live cells after treatment (HFFs; HFFs, 35 nM, positive control for cell death): No live cells were detected
